The results in this text go back to patent publication US8183234B2, “Tricyclic guanidine derivatives as sodium-proton exchange inhibitors” (Piramal Life Sciences Limited, priority 2004, dated 2012).

Structures are written as SMILES. Where a name gives a salt, the structure may show the parent alone.

What is called melting point is the temperature of the solid-liquid transition. Turning to `CS(=O)(=O)O.CS(=O)(=O)O.Cc1cc(C(=O)NC(=N)N)cc2c1Oc1c(Cl)cc(NCCNCc3ccccc3)cc1CS2(=O)=O` [Example 88, N-[2-(2-Benzylamino-ethylamino)-4-chloro-6-methyl-10,10-dioxo-10,11-dihydro-5-oxa-10lambda*6*-thia-dibenzo[a,d]cycloheptene-8-carbonyl]-guanidine dimesylate], the melting point lay in the range of 232 to 233 °C.
Under `CS(=O)(=O)O.N=C(N)NC(=O)c1ccc2c(c1)S(=O)(=O)Cc1cc(Cl)ccc1O2` [Example 3, N-(2-Chloro-10,10-dioxo-10,11-dihydro-5-oxa-10lambda*6*-thia-dibenzo[a,d]cycloheptene-8-carbonyl)-guanidine, methanesulfonic acid salt] stands 280 to 282 °C; under `Cc1cc(C(=O)N=C(N)N)cc2c1Oc1c(Cl)cc(N)cc1CS2(=O)=O` (as salt: sulfonic acid salt) [Example 35, N-(2-Amino-4-chloro-6-methyl-10,10-dioxo-10,11-dihydro-5-oxa-10lambda*6*-thia-dibenzo[a,d]cycloheptene-8-carbonyl)-guanidine, methane sulfonic acid salt], 190 to 192 °C; under `Cc1cc(C(=O)N=C(N)N)cc2c1Oc1c(Cl)cc(NCCn3ccnc3)cc1CS2(=O)=O` (as salt: mesylate) [Example 64, N-[4-Chloro-2-(2-imidazol-1-yl-ethylamino)-6-methyl-10,10-dioxo-10,11-dihydro-5-oxa-10lambda*6*-thia-dibenzo[a,d]cycloheptene-8-carbonyl]-guanidine dimesylate], 243 to 244 °C.
As to `CS(=O)(=O)O.CS(=O)(=O)O.Cc1cc(C(=O)NC(=N)N)cc2c1Oc1c(Cl)cc(N3CCN(C(=O)c4ccc[nH]4)CC3)cc1CS2(=O)=O` [Example 110, N-{4-Chloro-6-methyl-10,10-dioxo-2-[4-(1H-pyrrole-2-carbonyl)-piperazin-1-yl]-10,11-dihydro-5-oxa-10lambda*6*-thia-dibenzo[a,d]cycloheptene-8-carbonyl}-guanidine dimesylate], the melting point lay within 306 to 307 °C.
The result for `CNCCNc1cc(Cl)c2c(c1)CS(=O)(=O)c1cc(C(=O)NC(=N)N)cc(C)c1O2.CS(=O)(=O)O.CS(=O)(=O)O` [Example 71, N-[4-Chloro-6-methyl-2-(2-methylamino-ethylamino)-10,10-dioxo-10,11-dihydro-5-oxa-10lambda*6*-thia-dibenzo[a,d]cycloheptene-8-carbonyl)-guanidine dimesylate] reads 250 to 251 °C.
With `CS(=O)(=O)O.CS(=O)(=O)O.Cc1cc(C(=O)NC(=N)N)cc2c1Oc1c(Cl)cc(NC(=O)Cn3ccnc3)cc1CS2(=O)=O` [Example 137, N-(4-Chloro-8-guanidinocarbonyl-6-methyl-10,10-dioxo-10,11-dihydro-5-oxa-10lambda*6*-thia-dibenzo[a,d]cyclohepten-2-yl)-2-imidazol-1-yl-acetamide dimesylate], the melting point was 252 to 254 °C.
Under `CS(=O)(=O)O.CS(=O)(=O)O.Cc1cc(C(=O)NC(=N)N)cc2c1Oc1c(Cl)cc(NCc3cccnc3)cc1CS2(=O)=O` [Example 165, N-{4-Chloro-6-methyl-10,10-dioxo-2-[(pyridin-3-ylmethyl)-amino]-10,11-dihydro-5-oxa-10lambda*6*-thia-dibenzo[a,d]cycloheptene-8-carbonyl}-guanidine dimesylate] stands 238 °C.
The result for `Cc1cc(C(=O)N=C(N)N)cc2c1Oc1c(Cl)cc(S(=O)(=O)NCc3cccnc3)cc1CS2(=O)=O` (as salt: mesylate) [Example 52, 4-Chloro-8-guanidinocarbonyl-6-methyl-10,10-dioxo-10,11-dihydro-5-oxa-10lambda*6*-thia-dibenzo[a,d]cycloheptene-2-sulfonic acid (pyridin-3-ylmethyl)-amide dimesylate] reads 271 to 273 °C; that for `CNCC(=O)Nc1cc(Cl)c2c(c1)CS(=O)(=O)c1cc(C(=O)NC(=N)N)cc(C)c1O2.CS(=O)(=O)O.CS(=O)(=O)O` [Example 146, N-(4-Chloro-8-guanidinocarbonyl-6-methyl-10,10-dioxo-10,11-dihydro-5-oxa-10lambda*6*-thia-dibenzo[a,d]cyclohepten-2-yl)-2-methylamino-acetamide dimesylate], 188 to 190 °C; that for `CC(C)c1cccc2c1Oc1ccc(C(=O)NC(=N)N)cc1S(=O)(=O)C2.CS(=O)(=O)O` [Example 8, N-(4-Isopropyl-10,10-dioxo-10,11-dihydro-5-oxa-10lambda*6*-thia-dibenzo[a,d]cycloheptene-8-carbonyl)-guanidine, methanesulfonic acid salt], 220 to 222 °C.
As to `CS(=O)(=O)O.Cc1cc(C(=O)NC(=N)N)cc2c1Oc1c(Cl)cc(S(=O)(=O)Nc3nnc(C4CC4)s3)cc1CS2(=O)=O` [Example 51, 4-Chloro-8-guanidinocarbonyl-6-methyl-10,10-dioxo-10,11-dihydro-5-oxa-10lambda*6*-thia-dibenzo[a,d]cycloheptene-2-sulfonic acid (5-cyclopropyl-[1,3,4]thiadiazol-2-yl)-amide methane sulfonic acid salt], the melting point was in the range of 221 to 222 °C.
On to `CS(=O)(=O)O.CS(=O)(=O)O.Cc1cc(C(=O)NC(=N)N)cc2c1Oc1c(Cl)cc(NCCNCCN3CCOCC3)cc1CS2(=O)=O` [Example 79, N-{4-Chloro-6-methyl-2-[2-(2-morpholin-4-yl-ethylamino)-ethylamino]-10,10-dioxo-10,11-dihydro-5-oxa-10lambda*6*-thia-dibenzo[a,d]cycloheptene-8-carbonyl}-guanidine dimesylate], for which the melting point was 255 to 256 °C.
`COCC(=O)N(CCN1CCCC1)c1cc(Cl)c2c(c1)CS(=O)(=O)c1cc(C(=O)NC(=N)N)cc(C)c1O2.CS(=O)(=O)O.CS(=O)(=O)O` [Example 77, N-(4-Chloro-8-guanidinocarbonyl-6-methyl-10,10-dioxo-10,11-dihydro-5-oxa-10lambda*6*-thia-dibenzo[a,d]cyclohepten-2-yl)-2-methoxy-N-(2-pyrrolidin-1-yl-ethyl)-acetamide dimesylate] yielded a melting point of 204 to 206 °C.
For `CCN(CCN1CCCC1)c1cc(Cl)c2c(c1)CS(=O)(=O)c1cc(C(=O)N=C(N)N)cc(C)c1O2` (as salt: mesylate) [Example 73, N-{4-Chloro-2-[ethyl-(2-pyrrolidin-1-yl-ethyl)-amino]-6-methyl-10,10-dioxo-10,11-dihydro-5-oxa-10lambda*6*-thia-dibenzo[a,d]cycloheptene-8-carbonyl}-guanidine dimesylate], the melting point was 258 to 260 °C.
In turn, `CS(=O)(=O)O.CS(=O)(=O)O.Cc1cc(C(=O)NC(=N)N)cc2c1Oc1c(Cl)cc(N3CCN(C4CCC4)CC3)cc1CS2(=O)=O` [Example 129, N-[4-Chloro-2-(4-cyclobutyl-piperazin-1-yl)-6-methyl-10,10-dioxo-10,11-dihydro-5-oxa-10lambda*6*-thia-dibenzo[a,d]cycloheptene-8-carbonyl]-guanidine dimesylate] had a melting point of 275 to 277 °C.
